Data on three compounds can be found in patent US5190956A, “Certain N-substituted 3-oximino-2,4-dioxoquinolin-2,4-(1H)diones useful for treating viral infections” (Schering Corporation, priority 1990, dated 1993).

The test system of one series is HSV-2 (strain MS). Description: HSV-β-GAL assay (transient expression of beta galactosidase in transfected HeLa cells superinfected with HSV-2). The class given is cell-based. Particulars: HeLa cells transfected with pON 245^ori-, moi=5 pfu/cell, more than one number = additional tests; for IC50: Human alphaherpesvirus 2, HeLa, 24 h, read-out: ANTI-HSV ACTIVITY HSV-β-GAL ASSAY IC50. As for the experimental part:
HeLa and Vero cell cultures were maintained in Eagles Minimal Essential Medium which was supplemented with glutamine, penicillin, streptomycin and 10% fetal calf serum (10% EMEM). Stock cultures of HSV-2 (strain MS available from ATCC VR-540) were grown in and harvested from Vero cells. Viral stocks were titered in Vero cells according to established procedures.
Plasmid pON 245^ori- contains the promoter of the HSV-1 thymidine kinase (tk) gene located immediately 5' of the E. coli lac Z gene. In this arrangement, the tk promoter controls transcription from the bacterial gene in transient expression assays. Additionally, an SV40 polyadenylation signal is present at the 3' end of the lac Z gene to allow for the efficient translation of the mRNA in eucaryotic cells. The expression of beta galactosidase in a transient assay using pON 245^ori- is dependent upon superinfection of the transfected cells with HSV. […] For example, see U.S. application Ser. No. 07/435,491 filed Sep. 5, 1989, the disclosure of which is incorporated herein by reference thereto.
HeLa cells were seeded into 96 well microtiter plates and allowed to grow to 80% confluency (approximately 35000 cells/well). One half microgram of plasmid pON 245^ori- DNA was introduced into the cells of each well by the […] precipitation technique (Grahman and Van der Eb, 1973). Four to six hours later, the cells were rinsed with Hank's Balanced Salt Solution (HBSS), overlaid with 10% EMEM and incubated at 37° C. At 24 hrs post-transfection, cells were rinsed, overlaid with 10% EMEM again and re-incubated at 37° C. At 48 hrs. post-transfection, cells were rinsed and overlaid with either EMEM containing 2% fetal calf serum (2% EMEM), 2% EMEM containing HSV-2 (strain MS, Multiplicity of Infection [moi]=5 pfu/cell) or 2% EMEM containing HSV-2 and the appropriate concentration of the compound to be tested. Twenty-four hrs later, the cells were harvested and assayed for beta galactosidase activity as described below.
All determinations of beta galactosidase activity were performed in 96 well microtiter plates. The intracellar level of beta galactosidase activity in each well was determined from cell lysates of the monolayer cultures. Aliquots were assayed by incubation in the presence of beta galactosidase substrate, 4-methylumbelliferyl-β-D-galactoside (MUG, 125 ug/ml, Sigma), for 2 hrs. The generation of fluorescent product was quantified on a Microfluor microfluorimeter (Dynatech) after addition of 0.1M glycine, pH 10.3 (Spaete and Mocarski, 1985). The inhibitory activity of a compound was plotted versus the concentration and an IC50 value (the concentration of compound required to reduce beta glactosidase expression by 50%) was obtained for each compound tested.

A short description of series [1]: Cytotoxicity, 3H-LEU assay (inhibition of HeLa cell translation). The class given is cell-based. Particulars: human; HeLa cells, tritiated leucine incorporation after overnight/24 hrs treatment; read-out: CYTOTOXICITY 3H-LEU ASSAY IC50. As for the experimental part: HeLa cells were treated with inhibitory compound for 24 hrs, after which levels of translational activity were assayed.
For assay of translational activity, HeLa cultures were grown to 80% confluency in 96 well microtiter plates, treated with appropriate concentrations of compound in 2% EMEM during an overnight incubation at 37° C., then rinsed with HBSS and overlaid with […] of 2% EMEM containing 8 uCi of tritiated leucine (^3 H-LEU, 141 Cu/mMol, Amersham Corp., Arlington Heights Ill.). After a 1 hr incubation at 36.5° C., the cells were rinsed twice with phosphate buffered saline (PBS) and lysed in 400 ul/well of 1×PBS, 0.5% sodium dodecyl sulphate (SDS). After a 10 min incubation at 36.5° C., the contents of the well were transferred to a well in a Millititer HA microfiltration plate (Millipore Corp., Bedford, Mass.). The TCA insoluble proteins were precipitated onto the filter disc by a 10 min fixation with 5% TCA, followed by filtration under vacuum and three 10 minute rinse with 95% ethanol. The filters were dried at room temperature, cut from the milltitier plate and transferred to scintillation vials. TCA precipitable counts were assayed in 5 ml of Scintisol (Isolab, Akron, Ohio). The inhibitory activity of a compound was plotted versus the concentration and an IC50 value (that concentration of the compound required to decrease cellular translational activity by 50%) was derived for each compound.

The subject of another series is HSV-2, strain MS. Kind of series: In vivo anti-HSV efficacy, prophylactic guinea pig model of HSV infection. The note with it: 60 mg per kg subcutaneously, T.I.D., 10 days, first dose 24 hrs before infection. As for the experimental part: The in vivo assessment of anti-HSV efficacy was determined in the prophylactic guinea pig model of HSV infection described by Stansberry et al (1982). Dosing of guinea pigs was comprised of an initial treatment with test compound given 24 hrs prior to virus infection and subsequent administration of the compound every eight hours (T.I.D.) for a total of 10 days. Test compounds were administered subcutaneously in 0.5% buffered methyl cellulose at a dose of 60 mg per kg body weight of the animal. Animals were monitored daily for the developement of genital lesions and neurological symptomology, both of which were recorded and compared to the results obtained with parallel groups which received placebo or acyclovir treatment. Efficacy was evaluated for each compound by scoring the ability of the compound to ameliorate genital lesions produced by infection with HSV-2, strain MS, expressed as Maximum Lesion scores (MLS) on a scale of 1 (least lesions) to 4 (severe lesions).

In general, IC50 refers to the concentration that inhibits the measured activity by half.

As to `CN1C(=O)C(=NO)C(=O)c2ccccc21` [Formula 1.02], the 50% inhibitory concentration (IC50) in the series with HSV-2 (strain MS) was 7 µg/mL. Moreover, the CC50 at 24 h in series [1] came to 27 µg/mL.

For `O=C1C(=NO)C(=O)N(Cc2ccccc2)c2ccccc21` [Formula 1.03], in the series with HSV-2 (strain MS), the IC50 was 7 µg/mL. In addition, the CC50 at 24 h in series [1] turned out to be 40 µg/mL.

Consider `CCCCCCCN1C(=O)C(=NO)C(=O)c2ccccc21` [Formula 1.04], for which the “In-vivo anti-HSV activity (genital lesions, Maximum Lesion score)” value in the series on HSV-2, strain MS is “inactive”. In addition, the “ANTI-HSV ACTIVITY HSV-β-GAL ASSAY IC50” value with HSV-2 (strain MS) (24 hrs) is 2.5 µg/mL. In addition, the IC50 in the series with HSV-2 (strain MS) was below 3 µg/mL. Besides, the CC50 at 24 h in series [1] amounted to 37 µg/mL.
